Measured values reported in US4810705A, “Triazolo [3,4-b]pyridazines, process for their preparation and pharmaceutical compositions containing them” (priority 1984, dated 1989).
Read-outs that look alike come from different tables or passages of the source.

Assays:
[1] = Acute oral toxicity in female Charles River CD1 mice; conditions: mouse, in vivo, read-out: % toxicity (percentage of dead animals)
Description: Finally, the products of the invention were studied for their toxicity.
The studies were carried out on groups of 5 female Charles River mice of the CD1 strain, weighing between 20 and 24 g. The products were administered orally, diluted in 5% gum arabic. The acute toxicity was recorded during the 72 hours following administration of the product.
The results below (percentage of dead animals) were obtained as a function of the dose administered.

benzodiazepine receptor = experiment: Displacement of tritiated flunitrazepam from the benzodiazepine receptor (synaptic preparations of rat brain); format: binding; conditions: tritiated flunitrazepam (60 Ci/mM), 1.1 nM final, read-out: median effective concentration (IC50)
Description: ABILITY OF THE DERIVATIVES TO DISPLACE TRITIATED FLUNITRAZEPAM FROM THE BENZODIAZEPINE RECEPTOR
The studies were carried out on synaptic preparations of rat brain in accordance with the method described by Squives and Braestrup (Nature, 1977, 266, pages 732 to 734) and Mohler and Okada (Science, 1977, 198, pages 849 to 851).
The tritiated flunitrazepam (60 Ci/mM) was used at a final concentration of 1.1 nM. The results obtained with various products of the invention are shown in Table III and are expressed as median effective concentration (IC50) in μM.

food intake = experiment: Food intake of fasted rats; format: in vivo; conditions: 40 mg/kg orally, first hour
Description: Furthermore, the products according to the invention were studied for their ability to reduce the food intake of fasted rats.
The studies were carried out on isolated female rats (200 to 240 g) trained to consume their food during a period of 4 hours per day. On the day of the test, 60 minutes before the food is provided, the animals receive either the product to be studied or the vehicle of administration. The quantity of food ingested during the first hour is determined.
The values shown in the table are the mean values for groups of 6 rats.

[2] = test system: myorelaxation induced by diazepam; experiment: Antagonism of diazepam myorelaxation, traction test in mice; format: in vivo; conditions: 15 min before diazepam 3 mg/kg i.p., test 60 min after product; for ED50: Mus musculus, 1 h, read-out: Antagonism of the myorelaxation, 50% effective dose (ED50)
Description: (a) Myorelaxant properties.
The studies were carried out by means of the traction test (J. R. Boissier et al., Archives Internationales de Pharmacodynamie, 1961, 135, pages 29-49). This test determines the ability of mice, placed with the front paws on a horizontally stretched wire, to grip with the back paws. The animals which have not brought the back paws onto the wire in less than 5 seconds are considered to be in a state of myorelaxation.
The products are administered 15 minutes before the intraperitoneal injection of a dose of 3 mg/kg of diazepam and the test is performed 60 minutes after administration of the product to be studied. The study was carried out on groups of 10 mice per dose.

[3] = test system: anxiolytic effect of diazepam; experiment: Antagonism of anxiolytic effect of diazepam, approach-avoidance conflict test in rats; format: in vivo; conditions: 60 min before diazepam 4 mg/kg i.p.
Description: The studies were carried out on rats in the approach-avoidance conflict test (L. Cook and A. B. Davidson, Effects of behaviorally active drugs in a conflict-punishment procedure in rats. In: The Benzodiazepines, S. Garattini, E. Mussini and L. O. Randall, editors, Raven Press, New York, 1973, 327-345).
A representative product of the invention, SR 95 195, was administered intraperitoneally 60 minutes before an anxiolytic dose of diazepam (4 mg/kg i.p.). The test was performed 30 minutes after administration of the diazepam.

Row | SMILES | mortality at 72 h ([1]; 250 mg/kg orally) [%] | mortality at 72 h ([1]; 500 mg/kg orally) [%] | mortality at 72 h ([1]; 1000 mg/kg orally) [%] | IC50 (benzodiazepine receptor) [mM] | also measured
1 | c1ccc(-c2cnn3cnnc3c2)cc1 [SR 95 194, 7-Phenyl-1,2,4-triazolo[4,3-b]pyridazine] | 0 | 0 | 100 | 0.049 | –
2 | Cc1nnc2cc(-c3ccccc3)cnn12 [SR 95 195] | 0 | 0 | 80 | 0.009 | Food intake (food intake; 60 min before food, fasted female rats, mean, groups of 6): 8.6 ± 1.5 g; Food intake, % variation relative to the control animals (food intake; p < 0.01, Student's test): -51%; ED50 [2]: 26 mg/kg; % antagonism (anxiolytic effect of diazepam) ([3]; 1.25 mg/kg i.p.): 26%; % antagonism (anxiolytic effect of diazepam) ([3]; 6.25 mg/kg i.p.): 74%; % antagonism (anxiolytic effect of diazepam) ([3]; 25 mg/kg i.p.): 100%
3 | Cc1nnc2cc(Cc3ccccc3)cnn12 [SR 95 252] | 0 | 0 | 100 | 0.027 | –
4 | COc1ccc(-c2cnn3c(C)nnc3c2)cc1 [SR 95 287, 7-(4-Methoxyphenyl)-3-methyl-1,2,4-triazolo[4,3-b]pyridazine] | 0 | 0 | 0 | – | –
5 | Cc1nnc2cc(-c3ccc(Cl)cc3)cnn12 [SR 95 369] | 0 | 100 | 100 | – | –
6 | Cc1ccc(-c2cnn3c(C)nnc3c2)cc1 [SR 95 370] | 40 | 100 | 100 | – | –
7 | Cc1nnc2cc(-c3cccc(Cl)c3)cnn12 [SR 95 398] | 0 | 0 | – | 0.0026 | ED50 [2]: 20 mg/kg
8 | Cc1nnc2cc(CCc3ccccc3)cnn12 [SR 95 410] | 0 | 0 | 0 | – | –
9 | Cc1nnc2cc(-c3ccccc3Cl)cnn12 [SR 95 437] | 0 | 0 | – | – | –
10 | c1ccc(Cc2nnc3cc(-c4ccccc4)cnn23)cc1 [SR 95 491, 7-Phenyl-3-benzyl-1,2,4-triazolo[4,3-b]pyridazine] | – | – | – | 0.0045 | –
11 | Clc1ccc(-c2nnc3cc(-c4ccccc4)cnn23)cc1 [SR 95 492] | 0 | 0 | – | – | –
12 | c1ccc(-c2cnn3c(-c4ccccc4)nnc3c2)cc1 [SR 95 494] | 0 | 0 | – | 0.05 | –
13 | Cc1nnc2cc(-c3cccc(C(F)(F)F)c3)cnn12 [SR 95 533] | – | – | – | 0.0029 | Antagonism of the myorelaxation, effect (dose) ([2]; at 100 mg/kg): 100%
